Measurements from ChEMBL document CHEMBL1156097, “Design, synthesis and bioevaluation of novel maleamic amino acid ester conjugates of 3,5-bisarylmethylene-4-piperidones as cytostatic agents” (Bioorg Med Chem Lett, 2009).
Activity calls are given as the source filed them. The rule behind the calls is not given here.

Columns and labels:
[1] = Cytotoxicity against human Molt4/C8 cells; format: functional, cell-based; details: MOLT-4
Mus musculus [2] = assay: Neurotoxicity in mouse at 100 mg/kg, ip after 0.5 hrs; format: toxicity, organism-based; parameters: dose 100 mg/kg, route intraperitoneal; details: in vivo
[3] = biological target: DNA topoisomerase 2-alpha (Homo sapiens) (UniProt P11388); assay: Inhibition of human DNA topoisomerase 2alpha-mediated relaxation of supercoiled pRYG DNA at 100 uM after 30 mins by agarose gel electrophoresis
[4] = biological target: DNA topoisomerase 2-alpha (Homo sapiens) (UniProt P11388); assay: Inhibition of human DNA topoisomerase 2alpha-mediated relaxation of supercoiled pRYG DNA at 10 uM after 30 mins by […]
[5] = biological target: DNA topoisomerase 2-alpha (Homo sapiens) (UniProt P11388); assay: Inhibition of human DNA topoisomerase 2alpha-mediated relaxation of supercoiled pRYG DNA at 25 uM after 30 mins by […]
L1210 = assay: Cytotoxicity against mouse L1210 cells; format: functional, cell-based
[6] = biological target: DNA topoisomerase 2-alpha (Homo sapiens) (UniProt P11388); assay: Inhibition of human DNA topoisomerase 2alpha-mediated relaxation of supercoiled pRYG DNA at 50 uM after 30 mins by […]
CCRF-CEM = assay: Cytotoxicity against human CEM cells; format: functional, cell-based
Mus musculus [7] = assay: Neurotoxicity in mouse at 300 mg/kg, ip after 0.5 hrs; format: toxicity, organism-based; parameters: dose 300 mg/kg, route intraperitoneal; details: in vivo
Mus musculus [8] = assay: Neurotoxicity in mouse at 30 mg/kg, ip after 4 hrs; format: toxicity, organism-based; parameters: dose 30 mg/kg, route intraperitoneal; details: in vivo
Mus musculus [9] = assay: Neurotoxicity in mouse at 300 mg/kg, ip after 4 hrs; format: toxicity, organism-based; parameters: dose 300 mg/kg, route intraperitoneal; details: in vivo
Mus musculus [10] = assay: Neurotoxicity in mouse at 100 mg/kg, ip after 4 hrs; format: toxicity, organism-based; parameters: dose 100 mg/kg, route intraperitoneal; details: in vivo

DNA topoisomerase 2-alpha (Homo sapiens), sequence (P11388 whole entry): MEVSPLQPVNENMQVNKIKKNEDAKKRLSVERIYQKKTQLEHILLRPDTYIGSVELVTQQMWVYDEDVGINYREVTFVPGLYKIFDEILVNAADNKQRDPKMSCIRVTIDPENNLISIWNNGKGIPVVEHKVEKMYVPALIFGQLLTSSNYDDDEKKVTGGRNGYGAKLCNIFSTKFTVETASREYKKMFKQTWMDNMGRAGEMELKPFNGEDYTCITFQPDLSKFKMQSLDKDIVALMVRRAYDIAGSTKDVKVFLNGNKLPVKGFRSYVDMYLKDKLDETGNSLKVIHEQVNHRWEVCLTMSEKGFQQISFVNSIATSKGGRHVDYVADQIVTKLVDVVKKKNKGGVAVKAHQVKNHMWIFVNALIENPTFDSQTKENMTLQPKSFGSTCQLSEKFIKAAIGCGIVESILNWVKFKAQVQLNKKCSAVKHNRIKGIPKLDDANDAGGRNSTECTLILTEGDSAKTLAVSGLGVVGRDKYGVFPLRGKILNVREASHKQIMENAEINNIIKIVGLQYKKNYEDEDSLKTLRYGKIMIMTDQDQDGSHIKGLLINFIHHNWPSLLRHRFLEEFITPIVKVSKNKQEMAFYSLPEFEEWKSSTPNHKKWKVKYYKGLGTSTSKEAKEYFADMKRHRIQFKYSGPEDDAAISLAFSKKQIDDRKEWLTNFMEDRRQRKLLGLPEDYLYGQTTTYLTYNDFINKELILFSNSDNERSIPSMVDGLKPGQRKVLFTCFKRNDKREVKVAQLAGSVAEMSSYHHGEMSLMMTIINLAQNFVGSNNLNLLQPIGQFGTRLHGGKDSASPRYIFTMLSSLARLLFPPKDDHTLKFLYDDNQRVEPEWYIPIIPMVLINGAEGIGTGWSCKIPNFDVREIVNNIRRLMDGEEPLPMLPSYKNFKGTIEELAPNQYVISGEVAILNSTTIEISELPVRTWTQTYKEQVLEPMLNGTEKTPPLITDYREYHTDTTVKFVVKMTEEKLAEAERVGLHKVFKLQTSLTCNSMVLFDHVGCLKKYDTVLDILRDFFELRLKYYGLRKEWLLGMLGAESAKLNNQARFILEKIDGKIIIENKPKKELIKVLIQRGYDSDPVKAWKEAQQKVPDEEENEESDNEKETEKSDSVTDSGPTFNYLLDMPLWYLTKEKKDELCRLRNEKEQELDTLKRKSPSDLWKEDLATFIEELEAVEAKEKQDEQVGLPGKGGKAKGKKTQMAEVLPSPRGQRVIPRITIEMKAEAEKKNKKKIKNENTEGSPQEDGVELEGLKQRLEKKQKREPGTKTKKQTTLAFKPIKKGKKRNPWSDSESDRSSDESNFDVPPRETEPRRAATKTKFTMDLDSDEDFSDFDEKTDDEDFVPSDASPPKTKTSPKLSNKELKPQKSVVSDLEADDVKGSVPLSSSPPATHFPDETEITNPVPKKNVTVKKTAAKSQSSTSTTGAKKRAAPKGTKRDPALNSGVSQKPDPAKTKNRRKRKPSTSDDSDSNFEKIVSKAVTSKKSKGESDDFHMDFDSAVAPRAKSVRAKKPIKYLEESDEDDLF

C=CC(=O)N1C/C(=C\c2ccc([N+](=O)[O-])cc2)C(=O)/C(=C/c2ccc([N+](=O)[O-])cc2)C1
IC50 [1]: 150 nM

CCOC(=O)[C@H](CC(C)C)NC(=O)/C=C\C(=O)N1C/C(=C\c2ccc([N+](=O)[O-])cc2)C(=O)/C(=C/c2ccc([N+](=O)[O-])cc2)C1
Activity (Mus musculus [2]): Non-toxic
Activity [3]: Active
IC50 [1]: 210 nM
Activity [4]: inactive
Activity [5]: inactive
IC50 (L1210): 240 nM
Activity [6]: inactive
IC50 (CCRF-CEM): 170 nM

CCOC(=O)[C@H](CCSC)NC(=O)/C=C\C(=O)N1C/C(=C\c2ccc([N+](=O)[O-])cc2)C(=O)/C(=C/c2ccc([N+](=O)[O-])cc2)C1
Activity [3]: Active
IC50 [1]: 250 nM
Activity [4]: Active
Activity [5]: Active
IC50 (L1210): 580 nM
Activity [6]: Active
IC50 (CCRF-CEM): 190 nM

CCOC(=O)[C@H](CC(C)C)NC(=O)/C=C\C(=O)N1C/C(=C\c2ccccc2)C(=O)/C(=C/c2ccccc2)C1
Activity [3]: inactive
IC50 [1]: 1100 nM
Activity [4]: inactive
Activity [5]: inactive
IC50 (L1210): 4700 nM
Activity [6]: inactive
IC50 (CCRF-CEM): 1200 nM

CCOC(=O)CNC(=O)/C=C\C(=O)N1C/C(=C\c2ccc([N+](=O)[O-])cc2)C(=O)/C(=C/c2ccc([N+](=O)[O-])cc2)C1
Activity [3]: Active
Activity (Mus musculus [7]): Non-toxic
IC50 [1]: 230 nM
Activity (Mus musculus [8]): Non-toxic
Activity [4]: Active
Activity [5]: Active
IC50 (L1210): 840 nM
Activity [6]: Active
IC50 (CCRF-CEM): 110 nM
Activity (Mus musculus [9]): Non-toxic
Activity (Mus musculus [10]): Non-toxic

CCOC(=O)[C@H](Cc1ccc(O)cc1)NC(=O)/C=C\C(=O)N1C/C(=C\c2ccc([N+](=O)[O-])cc2)C(=O)/C(=C/c2ccc([N+](=O)[O-])cc2)C1
Activity [3]: Active
IC50 [1]: 280 nM
Activity [4]: inactive
Activity [5]: Active
IC50 (L1210): 600 nM
Activity [6]: Active
IC50 (CCRF-CEM): 170 nM

O=C1/C(=C/c2ccc([N+](=O)[O-])cc2)CNC/C1=C\c1ccc([N+](=O)[O-])cc1
IC50 [1]: 8280 nM
IC50 (L1210): 32100 nM

CCOC(=O)[C@H](Cc1ccc(O)cc1)NC(=O)/C=C\C(=O)N1C/C(=C\c2ccccc2)C(=O)/C(=C/c2ccccc2)C1
Activity [3]: Active
IC50 [1]: 570 nM
Activity [4]: inactive
Activity [5]: inactive
IC50 (L1210): 4600 nM
Activity [6]: inactive
IC50 (CCRF-CEM): 350 nM

CCOC(=O)[C@H](Cc1c[nH]c2ccccc12)NC(=O)/C=C\C(=O)N1C/C(=C\c2ccc([N+](=O)[O-])cc2)C(=O)/C(=C/c2ccc([N+](=O)[O-])cc2)C1
Activity [3]: Active
IC50 [1]: 270 nM
Activity [4]: Active
Activity [5]: Active
IC50 (L1210): 620 nM
Activity [6]: Active
IC50 (CCRF-CEM): 190 nM

CCOC(=O)[C@H](Cc1ccccc1)NC(=O)/C=C\C(=O)N1C/C(=C\c2ccc([N+](=O)[O-])cc2)C(=O)/C(=C/c2ccc([N+](=O)[O-])cc2)C1
Activity [3]: Active
IC50 [1]: 240 nM
Activity [4]: Active
Activity [5]: Active
IC50 (L1210): 200 nM
Activity [6]: Active
IC50 (CCRF-CEM): 130 nM

CCOC(=O)CNC(=O)/C=C\C(=O)N1C/C(=C\c2ccccc2)C(=O)/C(=C/c2ccccc2)C1
Activity [3]: inactive
IC50 [1]: 1400 nM
Activity [4]: inactive
Activity [5]: inactive
IC50 (L1210): 6100 nM
Activity [6]: inactive
IC50 (CCRF-CEM): 1300 nM

C=CC(=O)N1C/C(=C\c2ccccc2)C(=O)/C(=C/c2ccccc2)C1
IC50 [1]: 1420 nM

CCOC(=O)[C@H](C)NC(=O)/C=C\C(=O)N1C/C(=C\c2ccc([N+](=O)[O-])cc2)C(=O)/C(=C/c2ccc([N+](=O)[O-])cc2)C1
Activity [3]: Active
IC50 [1]: 240 nM
Activity [4]: inactive
Activity [5]: inactive
IC50 (L1210): 580 nM
Activity [6]: Active
IC50 (CCRF-CEM): 83 nM

CCOC(=O)[C@@H](NC(=O)/C=C\C(=O)N1C/C(=C\c2ccc([N+](=O)[O-])cc2)C(=O)/C(=C/c2ccc([N+](=O)[O-])cc2)C1)C(C)C
Activity [3]: Active
IC50 [1]: 220 nM
Activity [4]: inactive
Activity [5]: Active
IC50 (L1210): 440 nM
Activity [6]: Active
IC50 (CCRF-CEM): 170 nM
